Data: ChEMBL document CHEMBL3872209, “Inhibitory activity evaluation and mechanistic studies of tetracyclic oxindole derivatives as α-glucosidase inhibitors” (Eur J Med Chem, 2016)
The source made the active and inactive calls. No cut-off for these calls is given here.

Molecular target: not listed separately
Experiment: Inhibition of Baker's yeast alpha-glucosidase using pNGP as substrate after 30 mins by spectrophotometric analysis
Design: species or system Saccharomyces cerevisiae

| IC50 [µM] | SMILES |
| --- | --- |
| 187 | CN1C(=O)C(=O)c2c1ccc1c2C(CC(=O)O)Nc2ccccc2-1 (stereo not drawn) |
| 45.3 | COC(=O)CC1Nc2ccccc2-c2ccc3c(c21)C(=O)C(=O)N3Cc1ccc(OC)cc1 (stereo not drawn) |
| 80 | O=C(O)CC1Nc2ccccc2-c2ccc3c(c21)C(=O)C(=O)N3Cc1ccc(C(F)(F)F)cc1 (stereo not drawn) |
| 226 | CN1C(=O)C(=O)c2c1ccc1c2C(CC(=O)Nc2ccccc2)Nc2ccccc2-1 (stereo not drawn) |
| > 300 | O=C1C(=O)N(Cc2ccc(C(F)(F)F)cc2)c2ccc3c(c21)C(CC(=O)N1CCOCC1)Oc1ccccc1-3 (stereo not drawn) |
| 16 | O=C(O)CC1Oc2ccccc2-c2ccc3c(c21)C(=O)C(=O)N3Cc1ccccc1 (stereo not drawn) |
| 5.2 | Cc1c2c(cc3c1N(C)C(=O)C3=O)-c1ccccc1OC2CC(=O)Nc1ccc(-c2ccc(N)cc2)cc1 (stereo not drawn) |
| 160 | Cc1c2c(cc3c1N(Cc1ccc(C(F)(F)F)cc1)C(=O)C3=O)-c1ccccc1OC2CC(=O)O (stereo not drawn) |
| 4.6 | O=C(CC1Nc2ccccc2-c2ccc3c(c21)C(=O)C(=O)N3Cc1ccc(C(F)(F)F)cc1)Nc1ccccc1 (stereo not drawn) |
| 37.2 | COC(=O)CC1Nc2ccccc2-c2ccc3c(c21)C(=O)C(=O)N3Cc1ccc(C(F)(F)F)cc1 (stereo not drawn) |
| 162 | CN(C)CCNC(=O)CC1Oc2ccccc2-c2ccc3c(c21)C(=O)C(=O)N3Cc1ccc(C(F)(F)F)cc1 (stereo not drawn) |
| 180 | COC(=O)CC1Oc2ccccc2-c2cc3c(cc21)N(C)C(=O)C3=O (stereo not drawn) |
| 4.4 | O=C1C(=O)N(Cc2ccc(C(F)(F)F)cc2)c2ccc3c(c21)C(CC(=O)N1CCCCC1)Oc1ccccc1-3 (stereo not drawn) |
| 6.2 | O=C(CC1Oc2ccccc2-c2ccc3c(c21)C(=O)C(=O)N3Cc1ccc(C(F)(F)F)cc1)Nc1ccc(O)cc1 (stereo not drawn) |
| 26.3 | COC(=O)CC1Oc2ccccc2-c2cc3c(c(C)c21)N(Cc1ccc(C(F)(F)F)cc1)C(=O)C3=O (stereo not drawn) |
| 4.8 | O=C(O)CC1Oc2ccccc2-c2ccc3c(c21)C(=O)C(=O)N3Cc1ccc(C(F)(F)F)cc1 (stereo not drawn) |
| 1.9 | Nc1ccc(-c2ccc(NC(=O)CC3Nc4ccccc4-c4ccc5c(c43)C(=O)C(=O)N5Cc3ccc(C(F)(F)F)cc3)cc2)cc1 (stereo not drawn) |

The next lines start with the compound.

| SMILES | IC50 [µM] |
| --- | --- |
| Cc1c2c(cc3c1N(C)C(=O)C3=O)-c1ccccc1OC2CC(=O)O (stereo not drawn) | > 300 |
| O=C1C(=O)N(Cc2ccc(C(F)(F)F)cc2)c2ccc3c(c21)C(CC(=O)N1CCNCC1)Oc1ccccc1-3 (stereo not drawn) | 32.8 |
| O=C(O)CC1Oc2ccccc2-c2ccc3c(c21)/C(=N/O)C(=O)N3Cc1ccc(C(F)(F)F)cc1 (stereo not drawn) | 47.7 |
| COC(=O)CC1Nc2ccccc2-c2ccc3c(c21)C(=O)C(=O)N3C (stereo not drawn) | 287 |
| CNC(=O)CC1Oc2ccccc2-c2cc3c(c(C)c21)N(C)C(=O)C3=O (stereo not drawn) | > 300 |
| NC(=O)CC1Oc2ccccc2-c2ccc3c(c21)C(=O)C(=O)N3Cc1ccc(C(F)(F)F)cc1 (stereo not drawn) | 43.9 |
| COC(=O)CC1Oc2ccccc2-c2ccc3c(c21)C(=O)C(=O)N3Cc1ccc(OC)cc1 (stereo not drawn) | 32.3 |
| O=C(O)CC1Oc2ccccc2-c2ccc3c(c21)C(F)(F)C(=O)N3Cc1ccc(C(F)(F)F)cc1 (stereo not drawn) | 67 |
| Cc1c2c(cc3c1N(C)C(=O)C3=O)-c1ccccc1OC2CC(=O)Nc1ccccc1 (stereo not drawn) | 36.1 |
| CN1C(=O)C(=O)c2c1ccc1c2C(CC(=O)Nc2ccc(-c3ccc(N)cc3)cc2)Nc2ccccc2-1 (stereo not drawn) | 8.4 |
| COc1ccc(NC(=O)CC2Oc3ccccc3-c3ccc4c(c32)C(=O)C(=O)N4Cc2ccc(C(F)(F)F)cc2)cc1 (stereo not drawn) | 5.1 |
| CNC(=O)CC1Oc2ccccc2-c2ccc3c(c21)C(=O)C(=O)N3Cc1ccc(C(F)(F)F)cc1 (stereo not drawn) | 11.8 |
| COC(=O)CC1Oc2ccccc2-c2ccc3c(c21)C(=O)C(=O)N3C (stereo not drawn) | 105 |
| COC(=O)CC1Oc2ccccc2-c2cc3c(c(C)c21)N(C)C(=O)C3=O (stereo not drawn) | 18.5 |
| Cc1cc2c(c3c1N(Cc1ccc(C(F)(F)F)cc1)C(=O)C3=O)C(CC(=O)O)Oc1ccccc1-2 (stereo not drawn) | 51.5 |
| Nc1ccc(-c2ccc(NC(=O)CC3Oc4ccccc4-c4ccc5c(c43)C(=O)C(=O)N5Cc3ccc(C(F)(F)F)cc3)cc2)cc1 (stereo not drawn) | 0.7 |
| COC(=O)CC1Oc2ccccc2-c2ccc3c(c21)C(=O)C(=O)N3Cc1ccc(C(F)(F)F)cc1 (stereo not drawn) | 15.7 |
| O=C(CC1Oc2ccccc2-c2ccc3c(c21)C(=O)C(=O)N3Cc1ccc(C(F)(F)F)cc1)Nc1ccccc1 (stereo not drawn) | 4 |
| COC(=O)CC1Oc2ccccc2-c2ccc3c(c21)C(=O)C(=O)N3Cc1ccccc1 (stereo not drawn) | 12.1 |

System: Saccharomyces cerevisiae
Experiment: Binding affinity to Baker's yeast alpha-glucosidase after 30 mins by tryptophan fluorescence spectrophotometric method

| SMILES | Activity |
| --- | --- |
| Nc1ccc(-c2ccc(NC(=O)CC3Oc4ccccc4-c4ccc5c(c43)C(=O)C(=O)N5Cc3ccc(C(F)(F)F)cc3)cc2)cc1 (stereo not drawn) | Dose-dependent effect |

System: Saccharomyces cerevisiae
Experiment: Binding affinity to Baker's yeast alpha-glucosidase at 5 to 50 uM after 30 mins by tryptophan fluorescence spectrophotometric method

| SMILES | Activity |
| --- | --- |
| Nc1ccc(-c2ccc(NC(=O)CC3Oc4ccccc4-c4ccc5c(c43)C(=O)C(=O)N5Cc3ccc(C(F)(F)F)cc3)cc2)cc1 (stereo not drawn) | Active |

System: Saccharomyces cerevisiae
Experiment: Mixed type inhibition of Baker's yeast alpha-glucosidase at 1 to 1.5 uM using varying pNGP substrate levels preincubated for 30 mins followed by substrate addition by Lineweaver-Burk plot method

| SMILES | inhibition |
| --- | --- |
| Nc1ccc(-c2ccc(NC(=O)CC3Oc4ccccc4-c4ccc5c(c43)C(=O)C(=O)N5Cc3ccc(C(F)(F)F)cc3)cc2)cc1 (stereo not drawn) | Active |

System: Saccharomyces cerevisiae
Experiment: […] inhibition of Baker's yeast alpha-glucosidase at 0.5 to 1 uM after 30 mins by Lineweaver-Burk plot method

| SMILES | inhibition |
| --- | --- |
| Nc1ccc(-c2ccc(NC(=O)CC3Oc4ccccc4-c4ccc5c(c43)C(=O)C(=O)N5Cc3ccc(C(F)(F)F)cc3)cc2)cc1 (stereo not drawn) | Active |

System: Saccharomyces cerevisiae
Experiment: Potency index, ratio of acarbose IC50 to compound IC50 for inhibition of Baker's yeast alpha-glucosidase

| SMILES | Ratio IC50 |
| --- | --- |
| Nc1ccc(-c2ccc(NC(=O)CC3Oc4ccccc4-c4ccc5c(c43)C(=O)C(=O)N5Cc3ccc(C(F)(F)F)cc3)cc2)cc1 (stereo not drawn) | 165 to 170 |

System: Saccharomyces cerevisiae
Experiment: Binding affinity to Baker's yeast alpha-glucosidase assessed as reduction in enzyme surface hydrophobicity after 30 mins by Bis-ANS dye based spectrofluorometric method

| SMILES | Activity |
| --- | --- |
| Nc1ccc(-c2ccc(NC(=O)CC3Oc4ccccc4-c4ccc5c(c43)C(=O)C(=O)N5Cc3ccc(C(F)(F)F)cc3)cc2)cc1 (stereo not drawn) | Dose-dependent effect |

System: Saccharomyces cerevisiae
Experiment: Irreversible inhibition of Baker's yeast alpha-glucosidase at 20 uM after 24 hrs by dialysis method

| SMILES | inhibition |
| --- | --- |
| Nc1ccc(-c2ccc(NC(=O)CC3Oc4ccccc4-c4ccc5c(c43)C(=O)C(=O)N5Cc3ccc(C(F)(F)F)cc3)cc2)cc1 (stereo not drawn) | Active |
